# Source: patent publication US9956187B2 (priority 2014, dated 2018)
# Counter-ions that a name gives are not always drawn.
# Assays:
# BZP Rat Brain Site = conditions: primary binding, dezocine 10 μM
# Description: (§1) Evidence for interaction was based on the inhibition of the reference ligand-binding signal. […] Briefly, 50 μL aliquots of radioactive ligand (5 nM) were added to wells of a 96-well plate, which contained 25 μL of the reference or test ligands. We employed transfected cell lines expressing mainly human (unless otherwise specified) recombinant receptors, monoamine transporters, or ion channels for crude membrane preparation. Detailed information about our membrane preparation is well known in the art and can be obtained from publicly available protocol online. Crude membrane fractions containing the receptors were resuspended in standard binding buffer and 50 μL aliquots added to each well. The reactions were incubated at room temperature for 1.5 hours to allow for radioligand binding equilibration. Bound radioactivity was harvested by rapid filtration through a 0.3% polyethyleneimine-treated, 96-well filter mats using a 96-well Filtermate harvester. The dried filters were treated with melted scintillant and a Microbeta scintillation counter was utilized to measure the radioactivity retained on the filter.
# Sigma 1 [1] = target: T1, Sigma 1 (Homo sapiens, UniProt Q99720); experiment: Molecular target profiling; assay type: binding
# Target sequence in this assay (Q99720 whole entry, species assumed): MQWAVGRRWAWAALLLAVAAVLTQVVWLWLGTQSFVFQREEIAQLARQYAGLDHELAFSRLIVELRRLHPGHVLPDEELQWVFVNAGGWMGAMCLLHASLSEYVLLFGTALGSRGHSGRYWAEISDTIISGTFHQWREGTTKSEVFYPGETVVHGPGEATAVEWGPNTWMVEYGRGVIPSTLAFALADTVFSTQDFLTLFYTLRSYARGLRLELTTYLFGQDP
# [2] = Solubility in 20% cyclodextrin by HPLC; assay type: physicochemical; conditions: aqueous with cosolvent or surfactant or cyclodextrin, thermodynamic from solid, room temperature
# Text: It was filtered with 0.2 μm PTFE syringe filter after stirring for 24 hrs.
# [3] = tested on: chronic constriction injury (CCI) rats; experiment: Tactile allodynia, paw withdrawal threshold in CCI model; assay type: in vivo, rat; conditions: 3 mg/kg IP daily, days 1-10 after CCI, vs NS group, P<0.05
# Description: CCI procedures on the sciatic nerve of male SD rats were performed as previously described. Briefly, after rats were anesthetized by i.p. injection of sodium pentobarbital (40 mg/kg), the right sciatic nerve of the mid-thigh level was exposed. Chromic gut 4-0 was loosely tied around the nerve for 4 ligatures with about 1 mm between knots. The ligation was performed to just barely reduce the diameter of sciatic nerve. […] In the sham group, the sciatic nerve was exposed without ligation. The incisions of rats were closed in layers. After recovery from anesthesia, rats were housed individually in the clear plastic cages with soft bedding covered with 3-6 cm of sawdust.
# Same volume of normal saline (2 ml) was injected in the other two groups at the same time.
# The paw withdrawal threshold (PWT) was used to evaluate mechanical allodynia for nociceptive response with Von Frey filaments. The rats were placed in transparent plexiglass cage with a wire mesh floor. After acclimating to their environments for 30 minutes, each filament was applied perpendicularly to the plantar surface of the right hind paw. The end point was determined as paw withdrawal accompanied by biting, head turning and/or licking. The force (in gram, g) needed for this reaction was recorded. […]
# Sigma 1 [4] = target: T1, Sigma 1; experiment: Primary radioligand binding screen; set-up: expressed in transfected cells
# Description: as §1
# Target sequence in this assay (Q99720 whole entry): as the sequence (Q99720 whole entry, species assumed) above
# kappa opioid receptor = kappa opioid receptor (Homo sapiens, UniProt P41145); assay type: biochemical; set-up: purchased Millipore (Billerica, Mass.); host or cells: Chem-5 mammalian cell line; conditions: ligand alone
# kappa opioid receptor, sequence (P41145 whole entry): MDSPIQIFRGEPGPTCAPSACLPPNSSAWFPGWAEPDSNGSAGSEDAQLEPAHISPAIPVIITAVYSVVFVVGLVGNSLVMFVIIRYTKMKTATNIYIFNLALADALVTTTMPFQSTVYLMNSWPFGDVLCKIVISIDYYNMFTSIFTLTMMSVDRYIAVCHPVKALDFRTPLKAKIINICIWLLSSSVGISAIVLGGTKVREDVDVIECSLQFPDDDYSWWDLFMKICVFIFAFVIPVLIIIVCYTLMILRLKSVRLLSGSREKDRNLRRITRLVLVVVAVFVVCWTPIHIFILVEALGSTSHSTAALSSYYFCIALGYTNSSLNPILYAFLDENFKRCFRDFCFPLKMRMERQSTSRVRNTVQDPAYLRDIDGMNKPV
# Description: Membrane preparations of recombinant human kappa opioid receptor expressed in the mammalian cell line Chem-5 were obtained from Millipore (Billerica, Mass.). The effects of specific kappa opioid receptor ligands on the activation of the recombinant receptor were investigated by measuring G protein activation in vitro.
# The assay reports the initial rates of activation of heterotrimeric G proteins (Gαii1β1γ2) on an agonist-bound receptor by measuring the accumulation of [^35S]-GTPγS (non-hydrolyzable analog of GTP) bound to the activated Gαi1 subunit. […] The G protein activation assay was conducted as follows (final concentrations in 50 μL reaction mixture are given in parentheses): the membrane sample was diluted into ice-cold 10 mM 3-(N-morpholino)propanesulfonic acid (MOPS) buffer to reach a protein concentration of 40 ng/μL. 10 μL of the diluted dispersion were dispensed into pre-siliconized glass tubes and mixed with the ligand in MOPS buffer containing 0.1% (w/v) BSA. Upon addition of a mixture of Gαi1 (100 nM) and Gβ1γ2 (500 nM), the tubes were incubated on ice for 30 minutes. The reaction was started by addition of MOPS buffer pH=7.5 (50 mM), EDTA (1 mM), MgCl2 (3 mM), GDP (4 μM), BSA (0.3% w/v), NaCl (100 mM), DTT (1 mM), and [^35S]-GTPγS (5 nM, 1250 Ci/mmol) followed by rapid transfer of the tubes to a water bath at 30° C. The incubation continued for 45 minutes. The reaction was terminated by addition of 2 mL of ice-cold stop solution, TNMg (20 mM Tris-HCl pH=8.0, 100 mM NaCl, and 25 mM MgCl2). The reaction mixture was rapidly filtered through nitrocellulose filters (Millipore). Filters were washed four times with 2 mL each of cold TNMg buffer, dried, placed in scintillation vials filled with ScintiSafe Econo F scintillation liquid (Fisher, Waltham, Mass.), and the radioactivity counted. Duplicate samples corresponding to every ligand concentration point were counted.
compound,measurement,setting,value
"C[C@@]12CCCCC[C@@H](Cc3ccc(O)cc31)[C@@H]2N [Dezocine, (−)-13β-amino-5,6,7,8,9,10,11,12-octahydro-5α-methyl-5,11-methanobenxocyclodecen-31-ol, hydrobromide]",% inhibition,BZP Rat Brain Site,11.5%
same,interaction with sigma 1 receptor,Sigma 1 [1],interact with sigma 1 receptor
same,solubility at 24 h,[2]; 20% 2-Hydroxypropyl-β-cyclodextrin (HPBCD),18 ± 1 mg/mL
same,solubility at 24 h,[2]; 20% 2-Hydroxypropyl-γ-cyclodextrin (HPGCD),24 ± 1 mg/mL
same,paw withdrawal threshold (PWT),[3],increased markedly
same,inhibition at 10 µM,Sigma 1 [4],21.7%
same,G protein activation in the presence of kappa receptor,kappa opioid receptor,no significant G protein activation
